Assay results published in patent publication US10781211B2, “Spirocycle compounds and methods of making and using same” (Lundbeck La Jolla Research Center, Inc., priority 2016, dated 2020).

Experiments:
FAAH = FAAH (Mus musculus (Mouse), UniProt O08914); test: Mouse brain proteomes from inhibitor treated mice (oral gavage, sacrifice 4 h after administration, ABPP analysis), FAAH; type: in vivo; conditions: 5 mg/kg oral gavage
Description: (§1) Preparation of Mouse Brain Proteomes from Inhibitor Treated Mice.
(§2) Inhibitors were administered to wild-type C57Bl/6J by oral gavage in a vehicle, e.g. PEG400/Ethanol/PBS (7/2/1). Each animal was sacrificed 4 h following administration and brain proteomes were prepared and analyzed according to previously established methods (See Niphakis, M. J., et al. (2011) ACS Chem. Neurosci. and Long, J. Z., et al. Nat. Chem. Biol. 5:37-44). Data from this assay is shown in Table 2 (% inhibition at 5 mg/kg).

ABHD6 = ABHD6 (Mus musculus (Mouse), UniProt Q8R2Y0); test: Mouse brain proteomes from inhibitor treated mice (oral gavage, sacrifice 4 h after administration, ABPP analysis), ABHD6; type: in vivo; conditions: 5 mg/kg oral gavage
Description: as §1, §2

FAAH, sequence (O08914 whole entry): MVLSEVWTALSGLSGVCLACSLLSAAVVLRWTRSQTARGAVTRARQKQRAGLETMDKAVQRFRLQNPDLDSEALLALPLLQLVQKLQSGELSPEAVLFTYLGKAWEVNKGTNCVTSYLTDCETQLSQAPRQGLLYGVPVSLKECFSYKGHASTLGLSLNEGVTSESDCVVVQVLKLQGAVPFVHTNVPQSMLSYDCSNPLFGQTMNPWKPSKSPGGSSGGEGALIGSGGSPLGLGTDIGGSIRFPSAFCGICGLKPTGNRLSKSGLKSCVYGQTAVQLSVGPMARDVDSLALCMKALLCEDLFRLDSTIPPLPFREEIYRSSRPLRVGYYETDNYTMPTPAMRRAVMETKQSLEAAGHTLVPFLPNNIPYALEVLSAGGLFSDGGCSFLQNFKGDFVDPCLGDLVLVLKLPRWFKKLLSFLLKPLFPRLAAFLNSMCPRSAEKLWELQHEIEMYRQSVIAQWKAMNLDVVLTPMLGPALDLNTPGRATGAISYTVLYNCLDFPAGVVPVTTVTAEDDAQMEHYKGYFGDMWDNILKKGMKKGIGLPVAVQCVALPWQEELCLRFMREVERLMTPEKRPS
ABHD6, sequence (Q8R2Y0 whole entry): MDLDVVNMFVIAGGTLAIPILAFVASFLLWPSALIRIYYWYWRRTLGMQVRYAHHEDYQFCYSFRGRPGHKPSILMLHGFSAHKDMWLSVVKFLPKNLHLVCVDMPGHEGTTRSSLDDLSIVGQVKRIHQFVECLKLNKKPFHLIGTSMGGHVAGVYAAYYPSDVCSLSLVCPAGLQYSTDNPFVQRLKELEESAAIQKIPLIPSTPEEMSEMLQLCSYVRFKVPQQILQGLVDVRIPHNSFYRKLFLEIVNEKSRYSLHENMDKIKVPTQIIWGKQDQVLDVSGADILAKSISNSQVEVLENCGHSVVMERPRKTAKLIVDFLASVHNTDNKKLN

Row | FAAH % Inh 5 mg/kg (mouse) (FAAH) | ABHD6 % Inh 5 mg/kg (mouse) (ABHD6) | Compound
1 | # (# is < 25%) | # (# is < 25%) | CC(=O)N1CCN(c2cc(C(F)(F)F)ccc2CN2CCCC23CCN(C(=O)OC(C(F)(F)F)C(F)(F)F)CC3)CC1 [Example 88, 1,1,1,3,3,3-Hexafluoropropan-2-yl 1-(2-(4-acetylpiperazin-1-yl)-4-(trifluoromethyl)benzyl)-1,8-diazaspiro[4.5]decane-8-carboxylate]
2 | # (# is < 25%) | # (# is < 25%) | O=C(O)C1CCN(Cc2cc(C(F)(F)F)ccc2CN2CCCC23CCN(C(=O)OC(C(F)(F)F)C(F)(F)F)CC3)C1 (stereo not shown) [Example 262]
3 | # (# is < 25%) | # (# is < 25%) | CS(=O)(=O)N1CCN(c2cc(CN3CCCC34CCN(C(=O)OC(C(F)(F)F)C(F)(F)F)CC4)cc(C(F)(F)F)c2)CC1 [Example 43, 1,1,1,3,3,3-Hexafluoropropan-2-yl 1-(3-(4-(methylsulfonyl)piperazin-1-yl)-5-(trifluoromethyl)benzyl)-1,8-diazaspiro[4.5]decane-8-carboxylate]
4 | # (# is < 25%) | # (# is < 25%) | O=C(OC(C(F)(F)F)C(F)(F)F)N1CCC2(CCCN2Cc2ccc(C(F)(F)F)cc2Oc2cccnc2)CC1 [Example 173, 1,1,1,3,3,3-Hexafluoropropan-2-yl 1-(2-(pyridin-3-yloxy)-4-(trifluoromethyl)benzyl)-1,8-diazaspiro[4.5]decane-8-carboxylate]
5 | # (# is < 25%) | # (# is < 25%) | CC1(C)CC2(CCN(C(=O)OC(C(F)(F)F)C(F)(F)F)CC2)CN1Cc1ccc(C(F)(F)F)cc1N1CCOCC1 [Example 51, 1,1,1,3,3,3-Hexafluoropropan-2-yl 3,3-dimethyl-2-(2-morpholino-4-(trifluoromethyl)benzyl)-2,8-diazaspiro[4.5]decane-8-carboxylate]
6 | # (# is < 25%) | # (# is < 25%) | O=C(OC(C(F)(F)F)C(F)(F)F)N1CCC2(CCN(Cc3ccc(C(F)(F)F)cc3N3CCCCC3)C2)CC1 [Example 23, 1,1,1,3,3,3-Hexafluoropropan-2-yl 2-(2-(piperidin-1-yl)-4-(trifluoromethyl)benzyl)-2,8-diazaspiro[4.5]decane-8-carboxylate]
7 | # (# is < 25%) | # (# is < 25%) | O=C(OC(C(F)(F)F)C(F)(F)F)N1CCC2(CCN(Cc3ccc(C(F)(F)F)cc3N3CCCC3)C2)CC1 [Example 72, 1,1,1,3,3,3-Hexafluoropropan-2-yl 2-(2-(pyrrolidin-1-yl)-4-(trifluoromethyl)benzyl)-2,8-diazaspiro[4.5]decane-8-carboxylate]
8 | # (# is < 25%) | # (# is < 25%) | CS(=O)(=O)C1CCN(c2cc(C(F)(F)F)ccc2CN2CCCC23CCN(C(=O)OC(C(F)(F)F)C(F)(F)F)CC3)C1 (stereo not shown) [Example 193, 1,1,1,3,3,3-Hexafluoropropan-2-yl 1-(2-(3-(methylsulfonyl)pyrrolidin-1-yl)-4-(trifluoromethyl)benzyl)-1,8-diazaspiro[4.5]decane-8-carboxylate]
9 | # (# is < 25%) | # (# is < 25%) | CC1(C(=O)O)CCN(c2cc(C(F)(F)F)ccc2CN2CCCC23CCN(C(=O)OC(C(F)(F)F)C(F)(F)F)CC3)C1 (stereo not shown) [Example 230]
10 | # (# is < 25%) | # (# is < 25%) | O=C(OC(C(F)(F)F)C(F)(F)F)N1CCC2(CCCN2Cc2ccc(C(F)(F)F)cc2N2CCCCC2)CC1 [Example 78, 1,1,1,3,3,3-Hexafluoropropan-2-yl 1-(2-(piperidin-1-yl)-4-(trifluoromethyl)benzyl)-1,8-diazaspiro[4.5]decane-8-carboxylate]
11 | # (# is < 25%) | – | CS(=O)(=O)C1CN(c2cc(C(F)(F)F)ccc2CN2CCCC23CCN(C(=O)OC(C(F)(F)F)C(F)(F)F)CC3)C1 [Example 268]

Second part, the compound before the results:

Row | Compound | FAAH % Inh 5 mg/kg (mouse) (FAAH) | ABHD6 % Inh 5 mg/kg (mouse) (ABHD6)
12 | O=C(OC(C(F)(F)F)C(F)(F)F)N1CCC2(CCN(Cc3cccc(Cl)c3N3CCC(F)CC3)C2)CC1 [Example 65, 1,1,1,3,3,3-Hexafluoropropan-2-yl 2-(3-chloro-2-(4-fluoropiperidin-1-yl)benzyl)-2,8-diazaspiro[4.5]decane-8-carboxylate] | # (# is < 25%) | –
13 | O=C(OC(C(F)(F)F)C(F)(F)F)N1CCC2(CCCN2Cc2cc(OC3CCS(=O)(=O)CC3)cc(C(F)(F)F)c2)CC1 [Example 176, 1,1,1,3,3,3-Hexafluoropropan-2-yl 1-(3-((1,1-dioxidotetrahydro-2H-thiopyran-4-yl)oxy)-5-(trifluoromethyl)benzyl)-1,8-diazaspiro[4.5]decane-8-carboxylate] | # (# is < 25%) | # (# is < 25%)
14 | CC1(C)CC2(CCN(C(=O)OC(C(F)(F)F)C(F)(F)F)CC2)CN1Cc1ccc(Cl)cc1N1CCOCC1 [Example 50, 1,1,1,3,3,3-Hexafluoropropan-2-yl 2-(4-chloro-2-morpholinobenzyl)-3,3-dimethyl-2,8-diazaspiro[4.5]decane-8-carboxylate] | # (# is < 25%) | # (# is < 25%)
15 | O=C(O)C1CCN(Cc2cc(CN3CCCC34CCN(C(=O)OC(C(F)(F)F)C(F)(F)F)CC4)cc(OC(F)(F)F)c2)C1 (stereo not shown) [Example 270] | # (# is < 25%) | # (# is < 25%)
16 | O=C(O)C1CCN(Cc2cc(CN3CCCC34CCN(C(=O)OC(C(F)(F)F)C(F)(F)F)CC4)cc(OC(F)(F)F)c2)CC1 [Example 269] | # (# is < 25%) | # (# is < 25%)
17 | N#Cc1ccc(CN2CCCC23CCN(C(=O)OC(C(F)(F)F)C(F)(F)F)CC3)c(N2CCC(C(=O)O)CC2)c1 [Example 249] | # (# is < 25%) | # (# is < 25%)
18 | O=C(OC(C(F)(F)F)C(F)(F)F)N1CCC2(CCCN2Cc2cc(Oc3cccnc3)cc(C(F)(F)F)c2)CC1 [Example 174, 1,1,1,3,3,3-Hexafluoropropan-2-yl 1-(3-(pyridin-3-yloxy)-5-(trifluoromethyl)benzyl)-1,8-diazaspiro[4.5]decane-8-carboxylate] | # (# is < 25%) | # (# is < 25%)
19 | O=C(O)C1COCCN1c1cc(CN2CCCC23CCN(C(=O)OC(C(F)(F)F)C(F)(F)F)CC3)cc(C(F)(F)F)c1 (stereo not shown) [Example 200] | # (# is < 25%) | # (# is < 25%)
20 | O=C(O)C1CCN(Cc2cc(Cl)cc(CN3CCCC34CCN(C(=O)OC(C(F)(F)F)C(F)(F)F)CC4)c2)CC1 [Example 194, 1-(3-Chloro-5-((8-(((1,1,1,3,3,3-hexafluoropropan-2-yl)oxy)carbonyl)-1,8-diazaspiro[4.5]decan-1-yl)methyl)benzyl)piperidine-4-carboxylic acid] | # (# is < 25%) | # (# is < 25%)
21 | CC1(C(=O)O)CCCN(c2cc(C(F)(F)F)ccc2CN2CCC3(CCN(C(=O)OC(C(F)(F)F)C(F)(F)F)CC3)C2)C1 (stereo not shown) [Example 216] | # (# is < 25%) | # (# is < 25%)
